Data from US20240299416A1, “TREATMENT OF NF-kB-MEDIATED DISEASE” (ReveraGen BioPharma, Inc., priority 2021, published 2024).
Like-named read-outs stand apart in the source and are kept apart here. Values belong to the compound of their own block, whether it stands above or below them.

Tests used:
[1] = molecular target: T1, mineralocorticoid receptor (Homo sapiens, UniProt P08235); details: cited from earlier work
T1 sequence (P08235 1-984): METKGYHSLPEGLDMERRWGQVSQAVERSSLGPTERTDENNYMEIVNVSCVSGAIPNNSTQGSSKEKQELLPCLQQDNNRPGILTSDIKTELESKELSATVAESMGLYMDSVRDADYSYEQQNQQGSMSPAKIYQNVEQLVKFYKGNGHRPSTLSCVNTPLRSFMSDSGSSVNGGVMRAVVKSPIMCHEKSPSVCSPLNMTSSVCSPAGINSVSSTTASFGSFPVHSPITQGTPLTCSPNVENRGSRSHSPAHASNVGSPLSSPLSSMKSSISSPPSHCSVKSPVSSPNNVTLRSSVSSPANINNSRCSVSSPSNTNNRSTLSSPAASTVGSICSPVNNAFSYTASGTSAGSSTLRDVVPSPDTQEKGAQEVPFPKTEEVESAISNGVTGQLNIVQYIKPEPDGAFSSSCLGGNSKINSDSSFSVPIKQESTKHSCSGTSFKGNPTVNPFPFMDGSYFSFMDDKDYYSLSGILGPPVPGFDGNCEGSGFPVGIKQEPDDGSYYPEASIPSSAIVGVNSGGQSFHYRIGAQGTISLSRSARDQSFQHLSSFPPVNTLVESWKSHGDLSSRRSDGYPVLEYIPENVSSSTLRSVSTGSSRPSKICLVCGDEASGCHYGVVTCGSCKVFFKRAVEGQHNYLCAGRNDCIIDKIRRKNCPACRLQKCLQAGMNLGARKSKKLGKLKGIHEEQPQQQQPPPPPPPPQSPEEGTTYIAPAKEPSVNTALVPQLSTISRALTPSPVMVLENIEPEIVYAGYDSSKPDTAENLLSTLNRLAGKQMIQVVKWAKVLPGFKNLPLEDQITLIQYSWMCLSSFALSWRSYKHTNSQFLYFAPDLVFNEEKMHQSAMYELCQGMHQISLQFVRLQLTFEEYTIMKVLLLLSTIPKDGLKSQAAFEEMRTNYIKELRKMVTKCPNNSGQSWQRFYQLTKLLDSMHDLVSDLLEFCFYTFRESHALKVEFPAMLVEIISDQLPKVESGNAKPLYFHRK

[2] = Griggs et al. 2016 double-blind trial, 12 months treatment, cited from earlier work
[3] = cited from earlier work
[4] = Growth (height percentile) and BMI vs external comparators; type: in vivo, human; details: CINRG prednisone trial, 0.75 mg/kg/day daily; for Mean BMI z-score, change from baseline (SD) / Mean BMI z-score, baseline value (SD): 0.75 mg/kg/day
Procedure: As with the CINRG DNHS comparators, group-matching criteria were prespecified in the iSAP, and 2 independent statisticians carried out the participant matching. […] There was no corresponding 12-month assessment in vamorolone-treated participants. (Assessments of vamorolone-treated trial participants were 0, 3, 6, and 18 months).
Standing height and weight were assessed at each study visit. Height z-score, body mass index (BMI; kg/m^2), and BMI z-score were calculated centrally. AE reporting was done per protocol in the vamorolone trials.
The current study is the first to evaluate the longer-term tolerability, efficacy, and safety of vamorolone in DMD. […] Given the variable timing of dose escalations, it was prespecified that initial analyses of drug-related efficacy and safety would be limited to those participants who had 18 months of treatment with 2.0 mg/kg/day vamorolone or more (dose group C+dose group D; n=23). Outcomes for these participants were compared to a group-matched cohort from the CINRG DNHS over 18 months (corticosteroid-naïve, n=19; corticosteroid-treated, n=68). Participants were matched for age and treatment period (±1 month), matching criteria were prespecified in the statistical analysis plan. Two independent statisticians carried out the matching.
Participants in the corticosteroid-treated CINRG DNHS group were treated for at least 18 months, but the total duration, dose, and regimens varied.

[5] = VBP15-004 adverse events at 24 weeks; set-up: species or system human; details: male, human, in vivo, 24 weeks
Text: In certain embodiments, the symptom may be an adverse event of special interest (AESI). In this context, AESIs are prespecified based on pre-defined MedDRA search criteria for eleven AESI categories for the corticosteroid class and then further stratified into AESI of at least moderate severity. The symptoms for treating DMD with corticosteroids include, but is not limited to, behavior adverse events, blood glucose related problems, gastrointestinal symptoms, increased arterial blood pressure, immune suppression/infections, skin/hair changes, cataracts/glaucoma, cushingoid features, weight gain, bone fractures, slow growth.
(§1) The second period of 24 weeks, where all participants receive vamorolone treatment on either of the two dose levels, will continue to capture additional longer-term safety and tolerability data.

[6] = tested on: osteocalcin, P1NP, CTX; experiment: VBP15-004 bone turnover biomarkers; type: in vivo, human
[7] = VBP15-004 height and BMI z-scores, 24 to 48 weeks; type: in vivo, human; details: for BMI mean z-score: prednisone
Procedure: as §1
(§2) Subjects already on vamorolone continued on the allocated dose level. Efficacy at Week 48 was assessed by Time to Stand (TTSTAND) velocity, 6-Minute Walk Test (6MWT), Time to Run/Walk 10 meters (TTRW) velocity, and North Star Ambulatory Assessment (NSAA). […] In contrast, the persistence of effects with vamorolone 2 mg/kg/day was less pronounced for some parameters. The safety profile was consistent for subjects who continued on the same dose of vamorolone throughout the study, with no increase in frequency or severity of adverse events being observed over time. […] In addition, vamorolone treatment at both doses reversed the growth impairment seen during prednisone treatment and was associated with fewer adverse events, including those associated with corticosteroid use.

[8] = tested on: boys with DMD; experiment: VBP15-004 efficacy at Week 48; type: in vivo, human; details: prednisone, Treatment Period 1
Procedure: as §2, with “([…])” for “(TTSTAND)”

[9] = VBP15-004 adverse events, Treatment Period 2 / cross-over; type: in vivo, human; details: on prednisone (to Week 24), subjects later switched to vamorolone 6 mg/kg/day
Procedure: as §2, with “([…])” for “(TTSTAND)”

[10] = Griggs et al. 2016, 0.9 mg/kg/day deflazacort, 0.75 mg/kg/day prednisone

Structure (SMILES): CC(=O)OCC(=O)[C@@]12N=C(C)O[C@@H]1C[C@H]1[C@@H]3CCC4=CC(=O)C=C[C@]4(C)[C@H]3[C@@H](O)C[C@@]12C [Deflazacort, deflazacort]
activity at the mineralocorticoid receptor [1]: agonists | change in height percentiles for age [2]: −11.4 | change in height percentiles for age ([2]; listed as deflazacort): −11.43 | Incidence of Cushingoid ([3]; CINRG DNHS): 72% | Incidence of behavior change ([3]; CINRG DNHS): 33% | Incidence of weight gain ([3]; CINRG DNHS): 63% | Incidence of Cushingoid [3, 10]: 60.3% | Incidence of behavior change [3, 10]: 9% | Incidence of hypertrichosis/hirsutism [3, 10]: 35% | Incidence of weight gain [3, 10]: 27.9%

Mean BMI z-score, value (SD) at 12 months ([4]; 12 months): 1.068 (1.05) | Mean height percentile for age, change from baseline (SD) ([4]; 12 months): −3.76 (10.44) | Mean height percentile for age, value (SD) at 12 months ([4]; 12 months): 26.14 (24.21) | Mean BMI z-score, change from baseline (SD) ([4]; 12 months): 0.459 (0.407) | Mean BMI z-score, change from baseline (SD) ([4]; 12 months, listed as prednisone): 0.46 | Mean height percentile for age, baseline value (SD) ([4]; baseline): 29.89 (29.15) | Mean BMI z-score, baseline value (SD) ([4]; baseline): 0.61 (1.27) | Mean BMI z-score, baseline value (SD) ([4]; baseline, listed as prednisone): 0.61 | Osteocalcin, mean (SEM) change at Week 24 [6]: −15.2 (2.7) ng/ml | Procollagen 1 N-Terminal Propeptide (P1NP), mean (SEM) change at Week 24 ([6]; Prednisone 0.75 mg): −134 (22) ng/mL | Type I Collagen C-Telopeptides (CTX), mean (SEM) change at Week 24 ([6]; Prednisone 0.75 mg): −300 (43) pg/mL | effect on bone biomarkers (osteocalcin, PINP, CTX) ([6]; Week 24, vamorolone 2.0 and 6.0 mg/kg): strongly reduce all bone biomarkers | height (z-score), absolute value, Mean ([7]; PDN/VAM 6 mg, Week 24): −0.38 | change in height Z scores ([7]; prednisone 0.75 mg/kg/day, baseline to Week 24): growth deceleration | BMI mean z-score ([7]; end of Treatment Period 1): 1.40 | BMI mean z-score ([7]; start of Treatment Period 1): 0.94
Structure (SMILES): C[C@]12C=CC(=O)C=C1CC[C@@H]1[C@@H]2C(=O)C[C@@]2(C)[C@H]1CC[C@]2(O)C(=O)CO [Prednisone, prednisone]
AESIs of at least moderate severity, F [5]: 15 | Abnormal behavior, any severity, F [5]: 2 | Abnormal behavior, moderate/severe, F [5]: 1 | Aggression, any severity, F [5]: 3 | Aggression, moderate/severe, F [5]: 2 | All AESIs, F [5]: 69 | All TEAEs, F [5]: 120 | Anger, any severity, F [5]: 1 | Any Behavior AESI, any severity, F [5]: 16 | Any Behavior AESI, moderate/severe, F [5]: 8 | Clinically relevant AEs, F [5]: 19 | Emotional disorder, any severity, F [5]: 1 | Emotional disorder, moderate/severe, F [5]: 1 | Initial insomnia, any severity, F [5]: 1 | Irritability, any severity, F [5]: 1 | Mood swings, any severity, F [5]: 2 | Mood swings, moderate/severe, F [5]: 1 | Personality change, any severity, F [5]: 1 | Personality change, moderate/severe, F [5]: 1 | Psychomotor hyperactivity, any severity, F [5]: 3 | Psychomotor hyperactivity, moderate/severe, F [5]: 1 | Severe TEAEs (CTCAE Grade ≥3), F [5]: 1 | Sleep disorder, any severity, F [5]: 1 | Sleep disorder, moderate/severe, F [5]: 1 | TEAEs leading to discontinuation, F [5]: 1 | clinically relevant psychiatric events, subjects [5]: 19.4% | moderate/severe behavior problems, subjects [5]: 22.6% | 6MWT distance [8]: 407 meters | NSAA [8]: 25.6 points | TTRW velocity [8]: 2.20 m/s | TTSTAND velocity [8]: 0.28 rises/s | number of adverse events [9]: 70 | number of adverse events reported as behavioral disorders [9]: 15 | number of adverse events typically associated with corticosteroids [9]: 40 | activity at the mineralocorticoid receptor [1]: agonists
